One block for each compound: values may come before it.
Legend:
[1] = Half life in male Sprague-Dawley rat at 10 mg/kg, iv measured upto 24 hrs; format: ADME, organism-based; conditions: in vivo
[2] = Clearance in male Sprague-Dawley rat at 10 mg/kg, iv measured upto 24 hrs; format: ADME, organism-based; conditions: in vivo
[3] = Tmax in male Sprague-Dawley rat at 10 mg/kg, iv measured upto 24 hrs; format: ADME, organism-based; conditions: in vivo
[4] = Cmax in male Sprague-Dawley rat at 10 mg/kg, iv measured upto 24 hrs; format: ADME, organism-based; conditions: in vivo
[5] = test system: RAW264.7; experiment: Induction of pyroptosis in LPS induced mouse RAW264.7 cells by caspase-1/PI staining based flow cytometry (reference value: 49.6 %); format: functional
[6] = test system: RAW264.7; experiment: Anti-inflammatory activity in LPS-induced ALI in mouse RAW264.7 cells assessed as decrease in intracellular ROS level by DCFH-DA staining based flow cytometry analysis (reference value: 91.2%); format: functional; parameters: scale not given: the % may be the effect or the level left
[7] = AUC (0 to 24 hrs) in male Sprague-Dawley rat at 20 mg/kg, po measured upto 24 hrs; format: ADME, organism-based; conditions: in vivo
[8] = Cmax in male Sprague-Dawley rat at 20 mg/kg, po measured upto 24 hrs; format: ADME, organism-based; conditions: in vivo
[9] = Half life in male Sprague-Dawley rat at 20 mg/kg, po measured upto 24 hrs; format: ADME, organism-based; conditions: in vivo
[10] = AUC (0 to 24 hrs) in male Sprague-Dawley rat at 10 mg/kg, iv measured upto 24 hrs; format: ADME, organism-based; conditions: in vivo
[11] = Clearance in male Sprague-Dawley rat at 20 mg/kg, po measured upto 24 hrs; format: ADME, organism-based; conditions: in vivo
[12] = Tmax in male Sprague-Dawley rat at 20 mg/kg, po measured upto 24 hrs; format: ADME, organism-based; conditions: in vivo
[13] = Oral bioavailability in male Sprague-Dawley rat at 20 mg/kg measured upto 24 hrs; format: ADME, organism-based; conditions: in vivo
[14] = Stability of the compound in stimulated intestinal fluid assessed as half life; format: physicochemical; conditions: simulated intestinal fluid
[15] = Metabolic stability in human liver microsomes assessed as half life at […] measured upto 45 mins in presence of NADPH by LC-MS analysis; format: ADME, Microsome
[16] = Metabolic stability in human liver microsomes assessed as intrinsic clearance at […] measured upto 45 mins in presence of NADPH by LC-MS analysis; format: ADME, Microsome; conditions: read-out: CLH
[17] = biological target: P2Y purinoceptor 1 (Homo sapiens, UniProt P47900); experiment: Antagonist activity at human P2Y1R stably expressed in HEK293 cells assessed as inhibition of ADP-induced IP3 accumulation preincubated with compound for 30 mins followed by ADP addition by ELISA method; format: functional, cell-based
Chain of P2Y purinoceptor 1 (P47900 whole entry): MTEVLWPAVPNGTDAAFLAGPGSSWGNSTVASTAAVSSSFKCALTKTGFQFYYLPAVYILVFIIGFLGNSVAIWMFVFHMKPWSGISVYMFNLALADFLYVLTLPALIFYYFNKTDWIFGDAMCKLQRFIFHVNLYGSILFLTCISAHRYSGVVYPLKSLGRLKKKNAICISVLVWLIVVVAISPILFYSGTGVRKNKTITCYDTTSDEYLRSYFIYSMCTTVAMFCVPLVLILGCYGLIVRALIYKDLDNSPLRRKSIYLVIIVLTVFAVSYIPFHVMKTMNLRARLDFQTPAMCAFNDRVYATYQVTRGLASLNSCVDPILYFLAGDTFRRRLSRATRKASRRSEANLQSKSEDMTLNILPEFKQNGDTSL

[18] = Stability of the compound in stimulated gastric fluid assessed as half life; format: physicochemical; conditions: simulated gastric fluid
[19] = biological target: P2Y purinoceptor 4 (Homo sapiens, UniProt P51582); experiment: Antagonist activity at human P2Y4R stably expressed in HEK293 cells assessed as inhibition of UTP-induced IP3 accumulation preincubated with compound for 30 mins followed by UTP addition by ELISA; format: functional, cell-based
Chain of P2Y purinoceptor 4 (P51582 whole entry): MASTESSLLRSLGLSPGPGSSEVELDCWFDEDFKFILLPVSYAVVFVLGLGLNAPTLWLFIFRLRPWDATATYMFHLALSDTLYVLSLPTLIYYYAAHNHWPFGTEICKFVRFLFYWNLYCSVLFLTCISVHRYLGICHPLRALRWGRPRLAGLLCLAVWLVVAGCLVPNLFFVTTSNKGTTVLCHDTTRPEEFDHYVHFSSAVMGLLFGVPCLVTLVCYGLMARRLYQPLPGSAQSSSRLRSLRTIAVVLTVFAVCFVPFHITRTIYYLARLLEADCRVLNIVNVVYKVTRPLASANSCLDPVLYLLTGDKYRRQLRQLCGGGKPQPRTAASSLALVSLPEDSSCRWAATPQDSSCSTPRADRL

[20] = biological target: T1, Cytochrome P450 1A2 (Homo sapiens, UniProt P05177); experiment: Inhibition of CYP1A2 in human liver microsomes using phenacetin as substrate measured after 30 mins by LC/MS analysis; format: ADME, Microsome
T1 sequence (P05177 whole entry): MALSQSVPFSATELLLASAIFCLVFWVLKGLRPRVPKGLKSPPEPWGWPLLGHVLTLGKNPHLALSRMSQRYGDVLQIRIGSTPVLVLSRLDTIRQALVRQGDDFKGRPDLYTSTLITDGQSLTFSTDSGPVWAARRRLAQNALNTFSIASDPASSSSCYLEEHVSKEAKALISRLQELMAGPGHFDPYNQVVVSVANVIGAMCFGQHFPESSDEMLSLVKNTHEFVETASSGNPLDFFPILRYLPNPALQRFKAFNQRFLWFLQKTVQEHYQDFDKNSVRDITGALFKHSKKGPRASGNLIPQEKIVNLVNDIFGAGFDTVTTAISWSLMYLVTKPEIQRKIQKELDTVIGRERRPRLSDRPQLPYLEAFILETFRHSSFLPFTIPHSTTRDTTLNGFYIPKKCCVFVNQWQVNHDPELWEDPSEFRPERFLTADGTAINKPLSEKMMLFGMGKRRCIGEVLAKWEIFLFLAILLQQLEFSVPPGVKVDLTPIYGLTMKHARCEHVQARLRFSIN

[21] = biological target: P2Y purinoceptor 12 (Homo sapiens, UniProt Q9H244); experiment: Antagonist activity at human P2Y12R stably expressed in HEK293 cells assessed as inhibition of 2-MeSADP-induced IP3 accumulation preincubated with compound for 30 mins followed by 2-MeSADP addition by ELISA; format: functional, cell-based
Chain of P2Y purinoceptor 12 (Q9H244 whole entry): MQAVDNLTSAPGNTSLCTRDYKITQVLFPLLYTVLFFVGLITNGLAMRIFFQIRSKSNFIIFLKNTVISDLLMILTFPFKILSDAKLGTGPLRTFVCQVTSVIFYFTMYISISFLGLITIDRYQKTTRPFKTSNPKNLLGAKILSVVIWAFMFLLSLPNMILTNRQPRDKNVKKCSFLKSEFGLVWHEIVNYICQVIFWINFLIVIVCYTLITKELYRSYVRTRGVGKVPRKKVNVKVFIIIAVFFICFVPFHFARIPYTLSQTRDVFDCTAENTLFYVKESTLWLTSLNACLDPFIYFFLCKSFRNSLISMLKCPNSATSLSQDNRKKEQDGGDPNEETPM

[22] = biological target: P2Y purinoceptor 6 (Homo sapiens, UniProt Q15077); experiment: Antagonist activity at human P2Y6R stably expressed in HEK293 cells assessed as inhibition of UDP-induced IP3 accumulation preincubated with compound for 30 mins followed by UDP addition by ELISA; format: functional, cell-based
Chain of P2Y purinoceptor 6 (Q15077 whole entry): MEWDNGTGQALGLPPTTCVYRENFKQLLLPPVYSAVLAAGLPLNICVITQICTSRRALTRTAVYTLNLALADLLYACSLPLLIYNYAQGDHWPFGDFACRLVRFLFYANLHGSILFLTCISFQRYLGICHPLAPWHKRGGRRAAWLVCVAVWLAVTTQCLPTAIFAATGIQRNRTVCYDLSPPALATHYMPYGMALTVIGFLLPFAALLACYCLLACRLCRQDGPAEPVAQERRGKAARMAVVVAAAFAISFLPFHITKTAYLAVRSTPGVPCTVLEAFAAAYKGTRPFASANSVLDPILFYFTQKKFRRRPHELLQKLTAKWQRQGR

[23] = biological target: Cytochrome P450 3A4 (Homo sapiens, UniProt P08684); experiment: Inhibition of CYP3A4 in human liver microsomes using midazolam as substrate measured after 30 mins by LC/MS analysis; format: ADME, Microsome
Chain of Cytochrome P450 3A4 (P08684 whole entry): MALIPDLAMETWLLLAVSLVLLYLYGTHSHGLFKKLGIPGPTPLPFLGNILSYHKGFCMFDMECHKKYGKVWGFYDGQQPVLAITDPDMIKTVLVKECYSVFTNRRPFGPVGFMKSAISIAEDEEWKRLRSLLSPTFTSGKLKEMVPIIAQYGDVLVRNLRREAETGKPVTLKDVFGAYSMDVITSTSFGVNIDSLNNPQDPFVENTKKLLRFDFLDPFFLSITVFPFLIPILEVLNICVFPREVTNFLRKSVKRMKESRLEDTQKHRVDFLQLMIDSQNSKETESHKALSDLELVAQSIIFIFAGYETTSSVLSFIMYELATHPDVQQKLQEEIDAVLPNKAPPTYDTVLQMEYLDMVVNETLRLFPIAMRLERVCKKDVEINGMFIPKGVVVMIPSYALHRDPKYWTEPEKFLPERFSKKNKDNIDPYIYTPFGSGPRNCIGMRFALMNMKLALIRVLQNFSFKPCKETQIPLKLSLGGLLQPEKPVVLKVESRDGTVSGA

[24] = biological target: Cytochrome P450 2C19 (Homo sapiens, UniProt P33261); experiment: Inhibition of CYP2C19 in human liver microsomes using mephenytoin as substrate measured after 30 mins by LC/MS analysis; format: ADME, Microsome
Chain of Cytochrome P450 2C19 (P33261 whole entry): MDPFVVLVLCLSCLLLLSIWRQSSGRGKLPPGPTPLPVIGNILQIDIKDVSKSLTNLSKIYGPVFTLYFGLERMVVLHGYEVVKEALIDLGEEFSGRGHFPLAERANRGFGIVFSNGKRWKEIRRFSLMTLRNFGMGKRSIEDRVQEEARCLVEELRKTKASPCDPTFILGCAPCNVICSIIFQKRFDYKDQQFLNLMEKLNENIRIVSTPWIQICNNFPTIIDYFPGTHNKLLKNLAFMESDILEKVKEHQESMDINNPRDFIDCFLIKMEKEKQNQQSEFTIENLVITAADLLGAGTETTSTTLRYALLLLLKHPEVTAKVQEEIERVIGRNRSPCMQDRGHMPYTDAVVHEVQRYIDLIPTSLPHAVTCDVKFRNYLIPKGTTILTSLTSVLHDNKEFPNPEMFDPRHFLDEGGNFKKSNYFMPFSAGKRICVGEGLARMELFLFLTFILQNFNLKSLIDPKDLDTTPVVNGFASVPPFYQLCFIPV

[25] = biological target: Cytochrome P450 2C9 (Homo sapiens, UniProt P11712); experiment: Inhibition of CYP2C9 in human liver microsomes using diclofenac as substrate measured after 30 mins by LC/MS analysis; format: ADME, Microsome
Chain of Cytochrome P450 2C9 (P11712 whole entry): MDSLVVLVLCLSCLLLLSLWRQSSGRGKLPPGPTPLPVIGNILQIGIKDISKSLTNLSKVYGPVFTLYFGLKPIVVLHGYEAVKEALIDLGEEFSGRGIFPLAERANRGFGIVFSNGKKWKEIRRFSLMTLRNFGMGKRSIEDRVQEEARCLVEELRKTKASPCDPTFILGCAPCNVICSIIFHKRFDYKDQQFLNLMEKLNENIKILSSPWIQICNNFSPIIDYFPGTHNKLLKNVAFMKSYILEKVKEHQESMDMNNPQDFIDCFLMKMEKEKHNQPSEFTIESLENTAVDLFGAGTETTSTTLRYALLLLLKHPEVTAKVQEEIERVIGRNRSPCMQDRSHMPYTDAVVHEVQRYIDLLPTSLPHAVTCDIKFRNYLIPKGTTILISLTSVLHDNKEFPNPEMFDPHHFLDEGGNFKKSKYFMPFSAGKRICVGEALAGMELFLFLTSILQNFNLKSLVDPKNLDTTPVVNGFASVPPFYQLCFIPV

[26] = biological target: P2Y purinoceptor 2 (Homo sapiens, UniProt P41231); experiment: Antagonist activity at human P2Y2R stably expressed in HEK293 cells assessed as inhibition of UTP-induced IP3 accumulation preincubated with compound for 30 mins followed by UTP addition by ELISA method; format: functional, cell-based
Chain of P2Y purinoceptor 2 (P41231 whole entry): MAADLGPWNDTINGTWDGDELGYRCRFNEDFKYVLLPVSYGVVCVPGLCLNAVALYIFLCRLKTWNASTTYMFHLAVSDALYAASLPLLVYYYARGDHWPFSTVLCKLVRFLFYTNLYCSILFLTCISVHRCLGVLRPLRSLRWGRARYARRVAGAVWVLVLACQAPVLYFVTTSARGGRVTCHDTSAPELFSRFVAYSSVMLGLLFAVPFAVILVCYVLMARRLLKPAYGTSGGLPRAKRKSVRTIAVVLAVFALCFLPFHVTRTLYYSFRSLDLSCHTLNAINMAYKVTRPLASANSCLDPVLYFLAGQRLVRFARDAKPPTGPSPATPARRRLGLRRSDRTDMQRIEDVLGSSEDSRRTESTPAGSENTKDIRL

[27] = biological target: Cytochrome P450 2D6 (Homo sapiens, UniProt P10635); experiment: Inhibition of CYP2D6 in human liver microsomes using dextromethorphan as substrate measured after 30 mins by LC/MS analysis; format: ADME, Microsome
Chain of Cytochrome P450 2D6 (P10635 whole entry): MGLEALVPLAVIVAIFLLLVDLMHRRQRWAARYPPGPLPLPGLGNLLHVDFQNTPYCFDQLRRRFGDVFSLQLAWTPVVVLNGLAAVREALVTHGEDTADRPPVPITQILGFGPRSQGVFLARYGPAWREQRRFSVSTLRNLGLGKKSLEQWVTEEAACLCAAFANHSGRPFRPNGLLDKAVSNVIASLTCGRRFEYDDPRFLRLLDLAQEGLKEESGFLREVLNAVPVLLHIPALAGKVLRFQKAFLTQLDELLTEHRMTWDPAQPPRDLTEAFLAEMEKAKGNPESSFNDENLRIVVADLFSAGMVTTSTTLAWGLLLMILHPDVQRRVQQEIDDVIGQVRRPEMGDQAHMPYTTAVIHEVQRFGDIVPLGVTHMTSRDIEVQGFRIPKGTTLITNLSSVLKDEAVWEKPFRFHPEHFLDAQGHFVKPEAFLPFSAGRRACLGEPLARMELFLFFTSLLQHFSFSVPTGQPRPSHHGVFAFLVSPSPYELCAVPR

[28] = test system: RAW264.7; experiment: Cytotoxicity in mouse Raw264.7 cells at <80 uM incubated for 24 hrs by SRB method; format: toxicity, cell-based; conditions: raw264.7, 24 h

t1/2 ([1]; iv, 10 mg/kg, 24 h): 12 min | clearance [2]: 11.5 mL/min/kg | Tmax ([3]; iv, 10 mg/kg, 24 h): 8 min | Cmax ([4]; iv, 10 mg/kg, 24 h): 1024 ng/mL | AUC ([7]; po, 20 mg/kg, 24 h): 3001 ng·h/mL | Cmax [8]: 1540 ng/mL | half-life [9]: 24 min | AUC ([10]; iv, 10 mg/kg, 24 h): 2411 ng·h/mL | CL/F [11]: 22.1 mL/min/kg | Tmax [12]: 17 min | F ([13]; po, 20 mg/kg, 24 h): 12%
SMILES: O=C(O)c1cc(-c2ccc(C3CCNCC3)cc2)c2ccc(-c3ccc(C(F)(F)F)cc3)cc2c1 [PPTN]
Activity [5]: 8.93% | Activity [6]: 58.7%

half-life [14]: > 300 min | half-life ([1]; male, Sprague-Dawley): 48 min | clearance [2]: 26.1 mL/min/kg | half-life [15]: 354 min | microsomal CLint [16]: 25.6 µL/min/mg | IC50 [17]: > 100 µM | half-life [18]: > 50 h | Tmax ([3]; male, Sprague-Dawley, read-out: Tmax (converted)): 19 min | IC50 [19]: > 100 µM | Cmax ([4]; male, Sprague-Dawley, read-out: Cmax): 964 ng/mL | IC50 [20]: > 30 µM | IC50 [21]: > 100 µM | AUC(0-t) at 24 h ([7]; male, Sprague-Dawley): 1120 ng·h/mL | Cmax [8]: 1940 ng/mL | IC50 [22]: 47.6 µM | half-life [9]: 96 min | IC50 [23]: > 30 µM | AUC(0-t) at 24 h ([10]; male, Sprague-Dawley): 895 ng·h/mL | CL/F [11]: 46.5 mL/min/kg | IC50 [24]: > 30 µM | IC50 [25]: > 30 µM | Tmax [12]: 26 min | IC50 [26]: > 100 µM | IC50 [27]: > 30 µM | bioavailability ([13]; male, Sprague-Dawley): 38%
SMILES: COC(=O)c1cc(NC(=O)Cc2ccc(C)cc2)cc(-c2nc3ccccc3[nH]2)c1
Activity [28]: Non-toxic

Source: ChEMBL document CHEMBL6096734, “Design, Synthesis and Anti-Inflammatory Evaluation of 3-Substituted 5-Amidobenzoate Derivatives as Novel P2Y14 Receptor Antagonists via Structure-Guided Molecular Hybridization” (J Med Chem, 2025)
